ChEMBL document CHEMBL1275371, “Synthesis, biological evaluation, and molecular docking studies of 2-chloropyridine derivatives possessing 1,3,4-oxadiazole moiety as potential antitumor agents” (Bioorg Med Chem, 2010)
In brackets after ≈: the same amount, converted by molar mass.

system: SGC-7901; test: Antiproliferative activity against human SGC7901 cells after 48 hrs by MTT assay; assay type: functional, cell-based; conditions: SGC-7901, 48 h

| Compound | IC50 |
| --- | --- |
| Clc1ccc(-c2nnc(SCc3ccc(Cl)nc3)o2)cc1 | 8.62 µg/mL (≈ 25.5 µM) |
| Fc1ccccc1-c1nnc(SCc2ccc(Cl)nc2)o1 | 9.12 µg/mL (≈ 28.3 µM) |
| Cc1ccc(-c2nnc(SCc3ccc(Cl)nc3)o2)cc1 | 3.62 µg/mL (≈ 11.4 µM) |
| Clc1ccc(CSc2nnc(-c3cccc4ccccc34)o2)cn1 | 2.56 µg/mL (≈ 7.24 µM) |
| COc1ccccc1-c1nnc(SCc2ccc(Cl)nc2)o1 | 8.2 µg/mL (≈ 24.6 µM) |
| CCOc1ccccc1-c1nnc(SCc2ccc(Cl)nc2)o1 | 10.3 µg/mL (≈ 29.6 µM) |
| Fc1ccc(-c2nnc(SCc3ccc(Cl)nc3)o2)cc1 | 3.67 µg/mL (≈ 11.4 µM) |
| Clc1ccc(CSc2nnc(-c3ccccc3Cl)o2)cn1 | 13.4 µg/mL (≈ 39.8 µM) |
| Nc1ccc(-c2nnc(SCc3ccc(Cl)nc3)o2)cc1 | 8.48 µg/mL (≈ 26.6 µM) |
| CN(C)c1ccc(-c2nnc(SCc3ccc(Cl)nc3)o2)cc1 | 8.9 µg/mL (≈ 25.7 µM) |
| COc1ccc(-c2nnc(SCc3ccc(Cl)nc3)o2)cc1OC | 4.48 µg/mL (≈ 12.3 µM) |
| Oc1ccc(-c2nnc(SCc3ccc(Cl)nc3)o2)cc1 | > 20 µg/mL |
| CC(C)c1ccc(-c2nnc(SCc3ccc(Cl)nc3)o2)cc1 | 4.32 µg/mL (≈ 12.5 µM) |
| Cc1ccccc1-c1nnc(SCc2ccc(Cl)nc2)o1 | 8.51 µg/mL (≈ 26.8 µM) |
| COc1ccc(-c2nnc(SCc3ccc(Cl)nc3)o2)c(O)c1 | 1.61 µg/mL (≈ 4.6 µM) |
| COc1ccc(-c2nnc(SCc3ccc(Cl)nc3)o2)cc1 | 3.5 µg/mL (≈ 10.5 µM) |
| Clc1ccc(CSc2nnc(-c3cccs3)o2)cn1 | 15.1 µg/mL (≈ 48.7 µM) |
| COc1cc(-c2nnc(SCc3ccc(Cl)nc3)o2)cc(OC)c1OC | 10.2 µg/mL (≈ 25.9 µM) |
| O=c1[nH]cc(F)c(=O)[nH]1 [FLUOROURACIL] | 7.36 µg/mL (≈ 56.6 µM) |
| CCOc1ccc(-c2nnc(SCc3ccc(Cl)nc3)o2)cc1 | 4.97 µg/mL (≈ 14.3 µM) |
| Clc1ccc(CSc2nnc(-c3ccccn3)o2)cn1 | 12.6 µg/mL (≈ 41.3 µM) |
| Clc1ccc(CSc2nnc(-c3ccco3)o2)cn1 | 14.3 µg/mL (≈ 48.7 µM) |

target: Telomerase reverse transcriptase (Homo sapiens, UniProt O14746); test: Inhibition of telomerase in human SGC7901 cells by TRAP assay; assay type: cell-based, SGC-7901; conditions: not given
Sequence (O14746 whole entry): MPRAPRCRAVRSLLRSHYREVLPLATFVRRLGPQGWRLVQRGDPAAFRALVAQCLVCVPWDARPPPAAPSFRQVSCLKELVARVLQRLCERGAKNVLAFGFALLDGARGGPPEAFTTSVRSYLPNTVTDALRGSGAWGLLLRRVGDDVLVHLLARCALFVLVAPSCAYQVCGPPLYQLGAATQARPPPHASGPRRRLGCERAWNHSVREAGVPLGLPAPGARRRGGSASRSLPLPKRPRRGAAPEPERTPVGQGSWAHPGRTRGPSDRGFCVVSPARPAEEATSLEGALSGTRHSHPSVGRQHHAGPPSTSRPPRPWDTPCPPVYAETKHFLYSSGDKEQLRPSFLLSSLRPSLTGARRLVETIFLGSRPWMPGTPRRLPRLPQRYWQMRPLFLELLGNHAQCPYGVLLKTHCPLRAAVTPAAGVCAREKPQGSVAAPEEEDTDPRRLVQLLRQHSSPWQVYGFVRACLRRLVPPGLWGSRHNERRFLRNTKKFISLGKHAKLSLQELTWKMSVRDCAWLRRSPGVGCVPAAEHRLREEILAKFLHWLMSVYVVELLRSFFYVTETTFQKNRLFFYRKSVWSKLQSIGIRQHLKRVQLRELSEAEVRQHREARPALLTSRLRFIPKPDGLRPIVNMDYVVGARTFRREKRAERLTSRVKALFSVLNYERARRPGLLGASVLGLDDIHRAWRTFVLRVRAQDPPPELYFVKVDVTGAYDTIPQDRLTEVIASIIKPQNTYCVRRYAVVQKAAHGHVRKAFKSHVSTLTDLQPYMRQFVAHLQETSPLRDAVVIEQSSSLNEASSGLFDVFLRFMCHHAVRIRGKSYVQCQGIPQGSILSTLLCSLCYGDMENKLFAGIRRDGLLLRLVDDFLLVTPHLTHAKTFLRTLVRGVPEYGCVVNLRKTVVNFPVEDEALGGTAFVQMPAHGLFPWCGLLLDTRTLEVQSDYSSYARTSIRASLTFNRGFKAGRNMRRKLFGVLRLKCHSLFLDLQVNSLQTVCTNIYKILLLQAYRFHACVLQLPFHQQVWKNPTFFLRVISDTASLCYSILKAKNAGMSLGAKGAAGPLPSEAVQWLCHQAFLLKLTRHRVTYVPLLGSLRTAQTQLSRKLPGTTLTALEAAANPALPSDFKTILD

| Compound | IC50 |
| --- | --- |
| Clc1ccc(CSc2nnc(-c3cccc4ccccc34)o2)cn1 | 4.2 µM |
| COc1ccc(-c2nnc(SCc3ccc(Cl)nc3)o2)c(O)c1 | 2.3 µM |
